Activity calls are given as the source filed them.
Assays:
[1] = non-specific 3'UTR reporter inhibition in Clone20-Shn3RL – cell-based, Renilla luciferase, cherry-picked, counter-screen for Shn3 inhibitor project, dose response (AID 624133); assay type: functional
[2] = biological target: T1, Zinc finger protein mex-5 (Caenorhabditis elegans, UniProt Q9XUB2); assay: potency of MEX-5 RNA-binding blockers – biochemical, C. elegans, fluorescence polarization, dose response (AID 1960)
T1 sequence (Q9XUB2 whole entry): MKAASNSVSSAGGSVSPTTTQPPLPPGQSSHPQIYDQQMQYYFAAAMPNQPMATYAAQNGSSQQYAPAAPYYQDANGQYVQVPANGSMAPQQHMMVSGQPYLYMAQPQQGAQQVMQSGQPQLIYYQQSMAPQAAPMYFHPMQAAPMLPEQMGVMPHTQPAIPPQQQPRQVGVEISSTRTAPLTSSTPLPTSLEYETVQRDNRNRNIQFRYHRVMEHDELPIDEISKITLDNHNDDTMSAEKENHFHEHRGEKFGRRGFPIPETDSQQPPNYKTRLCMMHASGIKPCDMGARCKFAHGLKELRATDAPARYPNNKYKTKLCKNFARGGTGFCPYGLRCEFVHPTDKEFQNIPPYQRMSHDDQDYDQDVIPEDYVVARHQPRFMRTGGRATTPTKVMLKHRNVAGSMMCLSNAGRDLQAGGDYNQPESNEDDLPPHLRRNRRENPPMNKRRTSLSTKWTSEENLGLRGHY

[3] = cells; assay type: functional, cell-based
[4] = cells; assay type: functional, cell-based; remark: listed apart in the source
[5] = loss of viability in HepG2 cells – cell-based, CellTiter-Glo, cherry-picked, cytotoxicity control for Shn3 inhibitor project, dose response (AID 624134); assay type: functional
[6] = biological target: Albumin (Bos taurus, UniProt P02769); assay: Counterscreen for inhibitors of T-cell receptor (TCR)-CD3 interaction: Fluorescence-based biochemical high throughput dose response assay to identify inhibitors of T-cell receptor (TCR)-CD3 interaction using a TAMRA-labeled BSA probe.; assay type: functional
[7] = biological target: T2, Caspase-6 (Homo sapiens, UniProt P55212); assay: inhibition of CASP6 peptide cleavage – biochemical, VEID-R110 fluorescence, cherry-pick, dose response (AID 720632)
T2 sequence (P55212 whole entry): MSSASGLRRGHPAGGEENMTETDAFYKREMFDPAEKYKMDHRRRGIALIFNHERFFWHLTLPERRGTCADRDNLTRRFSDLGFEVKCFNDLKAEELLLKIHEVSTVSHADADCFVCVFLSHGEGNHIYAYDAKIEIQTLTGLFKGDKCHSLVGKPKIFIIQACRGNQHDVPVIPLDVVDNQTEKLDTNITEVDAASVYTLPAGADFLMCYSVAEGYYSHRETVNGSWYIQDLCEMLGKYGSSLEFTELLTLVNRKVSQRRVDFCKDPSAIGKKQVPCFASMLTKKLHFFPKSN

[8] = biological target: FAD-linked sulfhydryl oxidase ALR (Homo sapiens, UniProt P55789); assay: ALR-catalysed DTT oxidation blockers – biochemical, H2O2 detection, luminescence, cherry-pick, dose response (AID 493248)
[9] = biological target: T3, Histone-lysine N-methyltransferase NSD2 (Homo sapiens, UniProt O96028); assay type: biochemical
T3 sequence (O96028 whole entry): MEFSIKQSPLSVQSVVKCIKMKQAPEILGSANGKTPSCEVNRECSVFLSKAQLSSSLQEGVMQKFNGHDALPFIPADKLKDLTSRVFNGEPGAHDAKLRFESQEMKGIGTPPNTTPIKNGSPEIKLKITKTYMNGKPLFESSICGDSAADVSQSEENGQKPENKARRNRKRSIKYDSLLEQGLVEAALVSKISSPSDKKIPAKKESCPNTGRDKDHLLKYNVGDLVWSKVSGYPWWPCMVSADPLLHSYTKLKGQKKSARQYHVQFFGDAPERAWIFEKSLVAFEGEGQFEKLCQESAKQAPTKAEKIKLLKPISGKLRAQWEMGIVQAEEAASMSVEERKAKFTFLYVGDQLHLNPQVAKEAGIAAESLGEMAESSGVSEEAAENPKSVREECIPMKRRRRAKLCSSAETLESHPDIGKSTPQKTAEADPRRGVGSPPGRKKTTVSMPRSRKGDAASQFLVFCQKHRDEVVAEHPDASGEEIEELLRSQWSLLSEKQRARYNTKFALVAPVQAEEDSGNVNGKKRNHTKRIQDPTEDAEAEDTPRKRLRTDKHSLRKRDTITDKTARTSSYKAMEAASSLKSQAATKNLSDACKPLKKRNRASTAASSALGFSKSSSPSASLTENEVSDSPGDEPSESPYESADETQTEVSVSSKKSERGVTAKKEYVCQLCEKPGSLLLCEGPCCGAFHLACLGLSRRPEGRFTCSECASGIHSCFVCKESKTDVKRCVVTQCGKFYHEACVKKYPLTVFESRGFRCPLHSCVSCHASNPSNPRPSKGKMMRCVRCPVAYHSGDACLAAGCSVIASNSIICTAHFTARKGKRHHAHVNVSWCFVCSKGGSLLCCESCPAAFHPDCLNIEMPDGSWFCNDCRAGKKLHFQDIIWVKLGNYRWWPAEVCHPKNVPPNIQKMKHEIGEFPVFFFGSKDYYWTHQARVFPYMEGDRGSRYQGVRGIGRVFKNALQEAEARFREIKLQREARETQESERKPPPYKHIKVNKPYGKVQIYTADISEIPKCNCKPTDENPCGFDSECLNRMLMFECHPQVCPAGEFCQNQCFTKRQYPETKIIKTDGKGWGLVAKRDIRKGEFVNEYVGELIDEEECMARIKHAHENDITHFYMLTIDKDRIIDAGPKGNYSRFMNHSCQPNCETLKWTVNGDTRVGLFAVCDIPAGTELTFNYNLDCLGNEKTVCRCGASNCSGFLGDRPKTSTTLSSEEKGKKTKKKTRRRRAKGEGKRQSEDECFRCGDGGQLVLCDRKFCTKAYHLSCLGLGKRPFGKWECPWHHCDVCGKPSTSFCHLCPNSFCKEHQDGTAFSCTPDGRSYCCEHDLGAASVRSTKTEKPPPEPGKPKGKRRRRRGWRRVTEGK

[10] = biological target: T4, RNA-binding protein pos-1 (Caenorhabditis elegans, UniProt G5EF15); assay: disruptors of C. elegans POS-1 RNA interaction – biochemical, fluorescence polarization, dose response (AID 1964);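 note: purified POS-1 fused to maltose binding protein made in E. coli; potency of compounds blocking POS-1 binding to fluorescent RNA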
T4 sequence (G5EF15 whole entry): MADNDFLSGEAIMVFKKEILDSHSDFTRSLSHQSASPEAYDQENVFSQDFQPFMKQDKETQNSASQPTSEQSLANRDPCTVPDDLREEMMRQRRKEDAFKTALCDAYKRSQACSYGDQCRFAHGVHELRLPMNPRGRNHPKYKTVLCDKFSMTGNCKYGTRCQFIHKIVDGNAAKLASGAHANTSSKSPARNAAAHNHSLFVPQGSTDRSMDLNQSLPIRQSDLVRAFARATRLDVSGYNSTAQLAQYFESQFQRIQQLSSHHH

[11] = reduction of Shn3 3'UTR-driven luciferase in osteoblasts – cell-based, Clone20 osteoblasts, firefly luciferase, cherry-picked, dose response (AID 624132); assay type: functional;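 note: firefly luciferase luminescence from reporter carrying the Shn3 3'UTR in osteoblasts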
[12] = HGIII-sPLA2 enzyme inhibition potency – biochemical, QFRET, IC50, dose response (AID 743457);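 note: green fluorescence rise as the enzyme cleaves BODIPY PC-A2 in liposomes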
[13] = test system: HEK293; assay: viability loss in HEK293T cells – cell-based, ATP luminescence, cherry-pick samples, cytotoxicity control, dose response (AID 687005); assay type: functional; conditions: Homo sapiens;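 note: cells exposed to compound for 48 hours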
[14] = test system: HeLa; assay: viability loss in HeLa cells – cell-based, ATP luminescence, cherry-pick samples, cytotoxicity control, dose response (AID 687004); assay type: functional; conditions: Homo sapiens
[15] = HEK293 Cytotoxicity Assay Measured in Cell-Based System Using Plate Reader - 7071-01_Inhibitor_Dose_CherryPick_Activity_Set2.; assay type: functional
[16] = biological target: Protein Wnt-3a (Mus musculus, UniProt P27467); assay: SAR analysis of small molecule antagonists of Gli-SUFU in a Wnt3a luminescent reporter assay.; assay type: functional
Sequence of Protein Wnt-3a (P27467 whole entry): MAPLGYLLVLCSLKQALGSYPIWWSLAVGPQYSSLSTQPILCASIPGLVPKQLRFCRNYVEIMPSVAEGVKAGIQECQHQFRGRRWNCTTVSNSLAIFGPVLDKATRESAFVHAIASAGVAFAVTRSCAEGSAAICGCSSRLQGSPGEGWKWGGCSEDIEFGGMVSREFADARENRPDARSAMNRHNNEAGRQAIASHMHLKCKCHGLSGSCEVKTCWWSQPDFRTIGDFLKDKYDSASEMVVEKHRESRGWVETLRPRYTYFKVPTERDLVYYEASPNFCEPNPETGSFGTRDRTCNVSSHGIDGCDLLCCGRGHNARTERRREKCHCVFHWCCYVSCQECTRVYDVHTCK

Sequence of FAD-linked sulfhydryl oxidase ALR (P55789 whole entry): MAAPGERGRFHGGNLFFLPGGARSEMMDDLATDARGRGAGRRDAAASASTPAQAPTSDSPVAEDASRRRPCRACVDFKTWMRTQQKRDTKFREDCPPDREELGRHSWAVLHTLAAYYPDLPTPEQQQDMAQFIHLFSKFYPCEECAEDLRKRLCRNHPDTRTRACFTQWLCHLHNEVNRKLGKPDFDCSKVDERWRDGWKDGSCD
Sequence of Albumin (P02769 whole entry): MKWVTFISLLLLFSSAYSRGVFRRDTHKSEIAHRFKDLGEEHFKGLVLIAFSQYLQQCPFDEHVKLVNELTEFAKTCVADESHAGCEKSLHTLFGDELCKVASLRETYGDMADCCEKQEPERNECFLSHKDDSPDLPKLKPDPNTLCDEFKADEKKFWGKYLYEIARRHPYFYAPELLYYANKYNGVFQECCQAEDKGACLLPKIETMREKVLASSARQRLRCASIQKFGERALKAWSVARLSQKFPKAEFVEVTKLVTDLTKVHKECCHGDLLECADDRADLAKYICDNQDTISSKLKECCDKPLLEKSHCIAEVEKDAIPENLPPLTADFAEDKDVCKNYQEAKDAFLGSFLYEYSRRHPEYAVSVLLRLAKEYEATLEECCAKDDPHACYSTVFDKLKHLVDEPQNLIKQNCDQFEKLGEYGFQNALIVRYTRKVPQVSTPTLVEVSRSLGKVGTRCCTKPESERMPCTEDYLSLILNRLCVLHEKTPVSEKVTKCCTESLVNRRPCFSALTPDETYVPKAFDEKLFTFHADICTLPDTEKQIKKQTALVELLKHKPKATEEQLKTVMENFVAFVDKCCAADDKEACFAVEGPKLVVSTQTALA

Compound: Cc1ccc2nc(-c3ccc(O)c(O)c3)cn2c1
- AC50 [1]: 2.47 µM (active)
- EC50 [2]: 9.7 µM (active)
- EC50 [3]: 5.03 µM (active)
- EC50 [4]: > 350 µM (not active)
- AC50 [5]: > 70 µM (inactive)
- IC50 [6]: > 94.1 µM (inactive)
- AC50 [7]: 12 µM (active)
- AC50 [8]: 0.885 µM (active)
- AC50 [9]: > 20 µM (inactive)
- EC50 [10]: > 75 µM (not active)
- AC50 [11]: 4.2 µM (active)

Compound: CCc1c(-c2nnc(S)n2Cc2ccccc2)csc1C
- IC50 [12]: > 122 µM (inactive)

Compound: C[C@H]1CCCCO[C@H](CN(C)C(=O)Nc2ccc(F)cc2)[C@@H](C)CN([C@@H](C)CO)C(=O)c2cc(NS(=O)(=O)c3ccc(Cl)cc3)ccc2O1
- AC50 [13]: 30.6 µM (active)
- AC50 [14]: 25.5 µM (active)
- AC50 [15]: 30.6 µM (active)

Compound: CCCCNc1cc(NC(=O)c2ccccc2)ncn1
- IC50 [16]: > 21.8 µM (inactive)

Reference: ChEMBL document CHEMBL1201862, “PubChem BioAssay data set” (2004)
